Where no end group is shown, it is not given here.
Tests used:
spleen cells = test: Th1/Th2 cytokine profiling assay (Ovalbumin-restimulated spleen cells, CBA kit); assay type: cell-based, Balb/c mice; settings: 10 micrograms per ml; Ovalbumin restimulation; 72 hours
Text: The Balb/c mice (originated in 1923, it is a popular strain and is used in many different research disciplines. Also classified as an inbred from the production of 20 or more successive brother-sister matings, the Balb/c mouse is albino and small in size) were immunized on Days 1, 15, and 29 with Ovalbumin (Ovalbumin is the main protein found in egg white, commonly used to stimulate an immunological reaction in test animals) in PBS (5 micrograms/injection). On day 50, spleens of the mice were harvested (3 weeks after last boost with Ovalbumin). Cells were cultured (2×10^5/well in triplicate) and incubated with culture medium or test peptides—10 micrograms per ml—for 30 min. Thereafter, additional Ovalbumin was added to the cells at 10 micrograms/ml for in vitro restimulation of the cells. 72 hours later, cell supernatants were harvested and assayed using the Becton Dickinson Mouse Th1/Th2 Cytokine CBA Kit.

[1] = test system: Primary Human endothelial cells (HUVEC); test: Endothelial cell migration assay; assay type: cell-based; settings: 10 micrograms per ml, 22 hours, combination peptide 1:peptide 2 0.95 mole:1.05 mole
Procedure: Thereafter, designated concentration of testing peptides—10 micrograms per ml—was added in duplicate wells.

HCMV strain AD169 = test: HCMV plaque formation assay in MRC-5 cells; assay type: cell-based; settings: 10 micrograms per ml, 7-10 days
Text: Ganciclovir was used as positive control.

[2] = test system: hepatitis B virus (HBV) ayw strain; test: HBV experimental assay system, HepG2-2.2.15, secreted HBV DNA by TaqMan PCR; assay type: cell-based; settings: 10 micrograms per ml, HepG2-2.2.15 cells, six days
HUVEC = test: Endothelial tube formation assay; assay type: cell-based, human; settings: 10 micrograms per ml, 20 hours, combination peptide 1:peptide 2 1.10 mole:0.90 mole
Procedure: The endothelial tube formation assay is based on the ability of endothelial cells to form three-dimensional capillary-like tubular structures when cultured on a gel of basement membrane extract. The endothelial tube formation assay represents a powerful model for studying inhibition and induction of angiogenesis. Pre-labeled HUVEC with Calcein AM were seeded in a 96-well culture plate coated with extracellular metrix (Chemicon international Cat. ECM625) and treated with test peptides—10 micrograms per ml—in full growth medium. Positive control was vehicle only. The endothelial cells were allowed to form tubes foe 20 hours and were then examined under an inverted fluorescent microscope. Duplicate wells for each treatment were photographed and quantitatively analyzed for an average tubule length using image analysis software ImageProPlus. Raw data were expressed as average tubule lengths in pixels±standard deviation. Statistic p values were computed using the Student's t-test.

| Substance | IFNγ spleen cells; TH1 response (% of control) (spleen cells) | IL-2 spleen cells (% of control) (spleen cells) | IL-4 spleen cells; TH2 response (% of control) (spleen cells) | IL-5 spleen cells; TH2 response (% of control) (spleen cells) | TNF-a spleen cells; TH1 response (% of control) (spleen cells) | inhibition of the migration of human endothelial cells [1] [%] | inhibition of HCMV plaque formation as compared to the virus control experiment (HCMV strain AD169) | inhibition of HBV replication as compared to the virus control infection [2] | inhibition of the tube formation of human endothelial cells (HUVEC) |
| --- | --- | --- | --- | --- | --- | --- | --- | --- | --- |
| Phe-Arg-Trp-Gly-Lys-Pro-Val-Gly-Lys-Lys-Arg-Arg-Pro-Val-Lys-Val-Tyr-Pro-Asn-Gly-Ala-Glu-Asp-Glu-Ser-Ala-Glu-Ala-Phe-Pro-Leu-Glu-OH (FRWGKPVGKKRRPVKVYPNGAEDESAEAFPLE-OH) [Peptide 2] | 113.7 % of control | 137.1 % of control | 0.0 % of control | 106.3 % of control | 138.0 % of control | 41 | does not inhibit | 8.4% | did not inhibit |
| Glu-Ile-Gly-Asp-Glu-Glu-Asn-Ser-Ala-Lys-Phe-Pro-Ile-NH2 (EIGDEENSAKFPI-NH2) [Peptide 1] | 149.4 % of control | 212.4 % of control | 163.3 % of control | 115.8 % of control | 155.5 % of control | 53 | 5.8% | no effect |  |

Reference: patent US20100210535A1, “[…] USE OF NE[…] AND ACTH 7-38 AND COMPOSITIONS THEREOF” (priority 2007, published 2010)
